This note sets out measurements from patent publication US9493466B2, “Treatment of cancer with TOR kinase inhibitors” (Signal Pharmaceuticals, LLC, priority 2011, dated 2016).

In one experiment the test system is U87MG tumors. The experiment in a line: CD31 immunohistochemistry in U87MG tumors. It counts as in vivo, mice. The conditions noted are these: 5 mg/kg BID oral for 4 days; p<0.001. The protocol: Mechanism of action studies. To determine the mechanism of action of Compound 1, mice bearing U87MG tumors of approximately 500 mm^3 were dosed orally with vehicle or Compound 1 at 5 mg/kg BID for 4 days. The positive control, rapamycin, was dosed at 4 mg/kg Q3D for 4 days. Two hours after the 7th dose of Compound 1 on day 4, animals were euthanized and tumors were dissected out and snap frozen in liquid nitrogen. In the rapamycin-treated group tumors were collected at 2 hour after the 2nd dose on day 4. The tumors were processed for immunohistochemistry (IHC) or TUNEL.
Immunohistochemistry. Five to ten micron (5-10 μm) thick cryostat sections were used for IHC. The expression of the cell proliferation marker Ki67 was evaluated by IHC using anti-Ki67 antibody. […] The sections were visualized with a Nikon E800 microscope equipped with fluorescence detection equipment and a digital camera attached to a computer.
Quantitation of Immunohistochemistry. The tissues sections processed for apoptosis or immunostained for proliferating cells (Ki67) or blood vessels were quantitated using Metamorph software. Using 20× objective, 5 different fields from each section, 2-4 sections from each tumor, and 3-4 tumors from each treatment group or control were used for quantitation. The area of interest was expressed as the percent threshold area of the total area. […]

The next experiment concerns NSCLC. Kind of experiment: Phase 1/2 study Part B: tumor response, NSCLC. Conditions: 17 evaluable patients. The class given is in vivo, human. The source says: In Part B, subjects may start Compound 1 at the MTD and/or a lower dose level based on safety, PK and PD data from Part A. Approximately 150 subjects will be treated and evaluated for safety and preliminary antitumor activity after every two cycles of therapy. Tumor types include non-small cell lung cancer (NSCLC), glioblastoma multiforme (GBM), hepatocellular carcinoma (HCC), gastrointestinal neuroendocrine tumor of non-pancreatic origin (NET), diffuse large B-cell lymphoma (DLBCL), multiple myeloma (MM), and hormone receptor positive breast cancer (HRPBC). Up to 20 subjects will be enrolled in each tumor type.
Subjects will be evaluated for efficacy every 2 cycles through cycle 6 and every 3 cycles thereafter. The primary efficacy variable is response. Tumor assessments, including imaging (CT, MRI and/or PET) of the chest and abdomen and other sites as appropriate, will be performed during Screening. Subjects with brain lesions will also have brain scans at Screening and during follow-up tumor assessments. After Screening, tumor assessments (for all tumors except multiple myeloma) will be performed on completion of Cycles 2, 4 and 6 (i.e., on Cycles 3, 5 and 7/Day 1±7 days) and then every 3 months thereafter (e.g., Cycle 10 and 13/Day 1±7 days). Tumor assessment (for multiple myeloma and only NHL/DLBCL with known or suspected marrow involvement) (bone marrow aspiration and biopsy, with PD biomarker analysis, cytogenetic analysis if abnormally present at Screening) will be performed on completion of Cycles 4, 8, 12 and 16 only (i.e., on Cycles 5, 9, 13 and 17/Day 1±7 days). Cytogenetics need not be repeated if normal at Screening. […] Subjects will be evaluated for tumor response on completion of Cycle 2, 4, 6, and so on. […]
For Part B, efficacy variables to be analyzed include tumor response at the end of treatment, the proportion of subject alive and progression-free, and duration of response. […]

`CO[C@H]1CC[C@H](N2C(=O)CNc3ncc(-c4ccc(C(C)(C)O)nc4)nc32)CC1` [Compound 1, 7-(6-(2-hydroxypropan-2-yl)pyridin-3-yl)-1-((1r,4r)-4-methoxycyclohexyl)-3,4-dihydropyrazino-[2,3-b]pyrazin-2(1H)-one]: the “reduction of CD31-positive blood vessels compared with vehicle” value in the experiment with U87MG tumors was found to be 50%. In addition, in the experiment with NSCLC, the “patients meeting Partial Response (RECIST 1.1)” value is given as 1 patient and the “patients meeting at least Stable Disease (RECIST 1.1)” value is listed as 11 patients. In the experiment with NSCLC (45 mg QD start), the “best target lesions responses (reduction)” value was “up to 35%”.
